Active and inactive are the calls of the source. The rule behind the calls is not given here.
System: HEK-293T
Experiment: Cytotoxicity against AP1 expressing HEK293T cells coexpressing beta-lactamase pre-incubated 1 hr before TPA addition measured 18 hrs post TPA challenge by fluorimetric assay
Format: functional, cell-based
Settings: Homo sapiens

SMILES	Activity
CC(C)[C@H]1C(=O)N2CCC[C@H]2C(=O)N(C)[C@H](Cc2ccccc2)C2=N[C@@H](CS2)C(=O)N[C@H](C)C2=N[C@@H](CS2)C(=O)N(C)[C@H](Cc2ccccc2)C(=O)N[C@H](C(C)C)C(=O)N[C@H](C)[C@@H](C)C(=O)O[C@@H](Cc2ccccc2)C(=O)N1C	Active
CC[C@H]1NC(=O)[C@@H]2CSC(=N2)[C@@H](Cc2ccccc2)N(C)C(=O)[C@@H]2CCCN2C(=O)[C@H](C(C)C)N(C)C(=O)[C@H](Cc2ccccc2)OC(=O)[C@H](C)[C@@H](C)NC(=O)[C@@H](C(C)C)NC(=O)[C@@H](Cc2ccccc2)N(C)C(=O)[C@@H]2CSC1=N2	Active

— ChEMBL document CHEMBL1821559, “Grassypeptolides F and G, cyanobacterial peptides from Lyngbya majuscula” (J Nat Prod, 2011)
